Assay results as given in patent US20250346585A1 (Alexion Pharmaceuticals, Inc., priority 2022, published 2025).

target: Human complement C1s enzyme (Homo sapiens (Human), UniProt P09871); experiment: Human C1s enzyme assay; type: biochemical; details: Human C1s enzyme assay of Example 3; read-out: IC50 (Stars)
How it was run: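 Purified serum-derived human C1s (1.16 nM final) preincubated 5 min at room temperature with compound in 50 mM Tris, 1 M NaCl, pH 7.5. Z-L-Lys-SBzl thioester substrate and DTNB added (100 μM each, final); A405 read every 30 s for 30 min. IC50 from nonlinear regression of reaction rates against compound concentration.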

Human complement C1s enzyme, sequence (P09871 438-688 limits assumed): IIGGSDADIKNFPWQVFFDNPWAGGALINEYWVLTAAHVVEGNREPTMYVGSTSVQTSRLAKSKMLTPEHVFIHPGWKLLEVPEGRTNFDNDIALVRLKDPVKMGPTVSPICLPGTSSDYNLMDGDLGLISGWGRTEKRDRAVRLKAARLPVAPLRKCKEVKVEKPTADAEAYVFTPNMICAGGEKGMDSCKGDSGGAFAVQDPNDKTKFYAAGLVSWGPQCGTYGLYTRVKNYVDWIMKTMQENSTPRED
Human complement C1s enzyme, sequence (P09871 16-437 partner limits assumed): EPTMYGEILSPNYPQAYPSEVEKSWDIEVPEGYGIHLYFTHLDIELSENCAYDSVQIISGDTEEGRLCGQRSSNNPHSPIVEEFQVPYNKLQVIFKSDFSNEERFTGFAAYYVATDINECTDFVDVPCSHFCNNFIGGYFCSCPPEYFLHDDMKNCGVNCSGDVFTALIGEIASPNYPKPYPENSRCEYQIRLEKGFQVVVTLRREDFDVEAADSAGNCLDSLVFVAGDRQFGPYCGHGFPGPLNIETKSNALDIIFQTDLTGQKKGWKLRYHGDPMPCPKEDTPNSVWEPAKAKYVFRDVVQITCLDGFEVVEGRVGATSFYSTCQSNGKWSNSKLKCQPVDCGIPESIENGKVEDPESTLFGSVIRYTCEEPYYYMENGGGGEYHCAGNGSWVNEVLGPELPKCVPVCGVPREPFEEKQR

IC50 | SMILES
< 100 nM | C[C@@H](NC(=O)[C@@H]1CC2(CN1C(=O)CNC(=O)c1ccc3c(c1)-c1ccc(F)cc1C3(F)F)OCCO2)c1cc(C(=N)N)cs1 [Compound 193, (8S)—N-[(1R)-1-(4-carbamimidoylthiophen-2-yl)ethyl]-7-{2-[(7,9,9-trifluorofluoren-3-yl)formamido]acetyl}-1,4-dioxa-7-azaspiro[4.4]nonane-8-carboxamide]
< 100 nM | C[C@@H](NC(=O)[C@@H]1C[C@](F)(CF)CN1C(=O)CNC(=O)c1ccc(Oc2ccc(F)cc2)cc1)c1ccc(C(=N)N)s1 [Compound 40, (2S,4R)—N—((R)-1-(5-carbamimidoylthiophen-2-yl)ethyl)-4-fluoro-4-(fluoromethyl)-1-((4-(4-fluorophenoxy)benzoyl)glycyl)pyrrolidine-2-carboxamide]
< 100 nM | C[C@@H](NC(=O)[C@@H]1C[C@]2(CO)C[C@@H]2N1C(=O)CNC(=O)c1ccc(Oc2ccc(F)cc2)cc1)c1cc(C(=N)N)cs1 [Compound 42, (1S,3S,5R)—N—((R)-1-(4-carbamimidoylthiophen-2-yl)ethyl)-2-((4-(4-fluorophenoxy)benzoyl)glycyl)-5-(hydroxymethyl)-2-azabicyclo[3.1.0]hexane-3-carboxamide]
< 100 nM | C[C@@H]1C[C@@H](C(=O)N[C@H](C)c2cc(C(=N)N)cs2)N(C(=O)CNC(=O)c2ccc(Oc3ccc(F)cc3)cc2)C1 [Compound 63, (2S,4R)—N—((R)-1-(4-carbamimidoylthiophen-2-yl)ethyl)-1-((4-(4-fluorophenoxy)benzoyl)glycyl)-4-methylpyrrolidine-2-carboxamide]
< 100 nM | C[C@@H](NC(=O)[C@@H]1CC2(CN1C(=O)CNC(=O)c1ccc3[nH]c4ccccc4c3c1)OCCO2)c1cc(C(=N)N)cs1 [Compound 170, (S)-7-((9H-carbazole-3-carbonyl)glycyl)-N—((R)-1-(4-carbamimidoylthiophen-2-yl)ethyl)-1,4-dioxa-7-azaspiro[4.4]nonane-8-carboxamide]
< 100 nM | COC[C@@]12C[C@@H]1N(C(=O)CNC(=O)c1ccc(Oc3ccc(F)cc3)cc1)[C@H](C(=O)N[C@H](C)c1cc(C(=N)N)cs1)C2 [Compound 44, (1S,3S,5R)—N—((R)-1-(4-carbamimidoylthiophen-2-yl)ethyl)-2-((4-(4-fluorophenoxy)benzoyl)glycyl)-5-(methoxymethyl)-2-azabicyclo[3.1.0]hexane-3-carboxamide]
> 1000 nM | O=C(NCC(=O)N1CC2(C[C@H]1C(=O)NCc1cc(-c3cc(C(F)(F)F)[nH]n3)cs1)OCCO2)c1ccc(Oc2ccc(F)cc2)cc1 [Compound 76, (S)-7-((4-(4-fluorophenoxy)benzoyl)glycyl)-N-((4-(5-(trifluoromethyl)-1H-pyrazol-3-yl)thiophen-2-yl)methyl)-1,4-dioxa-7-azaspiro[4.4]nonane-8-carboxamide]
< 100 nM | Cc1ccc(Oc2ccc(C(=O)NCC(=O)N3C[C@@](F)(CF)C[C@H]3C(=O)N[C@H](C)c3cc(C(=N)N)cs3)cc2)cc1 [Compound 14, (2S,4R)—N—((R)-1-(4-carbamimidoylthiophen-2-yl)ethyl)-4-fluoro-4-(fluoromethyl)-1-((4-(p-tolyloxy)benzoyl)glycyl)pyrrolidine-2-carboxamide]
< 100 nM | N=C(N)c1csc(CNC(=O)[C@@H]2CC3(CN2C(=O)CNC(=O)c2cccc(-c4ccccc4)n2)OCCO3)c1 [Compound 146, (S)—N-((4-carbamimidoylthiophen-2-yl)methyl)-7-((6-phenylpicolinoyl)glycyl)-1,4-dioxa-7-azaspiro[4.4]nonane-8-carboxamide]
< 100 nM | CC1(C)c2ccccc2-c2cc(C(=O)NCC(=O)N3CC4(C[C@H]3C(=O)NCc3cc(C(=N)N)cs3)OCCO4)ccc21 [Compound 60, (S)—N-((4-carbamimidoylthiophen-2-yl)methyl)-7-((9,9-dimethyl-9H-fluorene-3-carbonyl)glycyl)-1,4-dioxa-7-azaspiro[4.4]nonane-8-carboxamide]
< 100 nM | C[C@@H](NC(=O)[C@@H]1C[C@@H](OC(F)F)CN1C(=O)CNC(=O)c1ccc(Oc2ccc(F)cc2)cc1)c1cc(-c2ncc[nH]2)cs1 [Compound 86, (2S,4R)—N—((R)-1-(4-(1H-imidazol-2-yl)thiophen-2-yl)ethyl)-4-(difluoromethoxy)-1-((4-(4-fluorophenoxy)benzoyl)glycyl)pyrrolidine-2-carboxamide]

same assay, conditions: Human complement C1s enzyme 1.16 nM, substrate Z-L-Lys-SBzl 100 μM, assay of Example 3; read-out: IC50 (Stars)

IC50 | SMILES
< 100 nM | C[C@H](NC(=O)c1ccc(-c2ccc(F)cc2F)cc1)C(=O)N1CC2(C[C@H]1C(=O)NCc1cc(C(=N)N)cs1)OCCO2 [Compound 291, (S)—N-((4-carbamimidoylthiophen-2-yl)methyl)-7-((2′,4′-difluoro-[1,1′-biphenyl]-4-carbonyl)-L-alanyl)-1,4-dioxa-7-azaspiro[4.4]nonane-8-carboxamide]
< 100 nM | C[C@@H](NC(=O)[C@@H]1CC2(CN1C(=O)CNC(=O)c1ccc3sc4ccccc4c3c1)OCCO2)c1cc(C(=N)N)cs1 [Compound 254, (S)—N—((R)-1-(4-carbamimidoylthiophen-2-yl)ethyl)-7-((dibenzo[b,d]thiophene-2-carbonyl)glycyl)-1,4-dioxa-7-azaspiro[4.4]nonane-8-carboxamide]
< 100 nM | COC1c2ccccc2-c2cc(C(=O)NCC(=O)N3CC4(C[C@H]3C(=O)N[C@H](C)c3cc(C(=N)N)cs3)OCCO4)ccc21 (stereo partly drawn) [Compound 277, (8S)—N—((R)-1-(4-carbamimidoylthiophen-2-yl)ethyl)-7-((9-methoxy-9H-fluorene-3-carbonyl)glycyl)-1,4-dioxa-7-azaspiro[4.4]nonane-8-carboxamide]
> 1000 nM | O=C(NCC(=O)N1CC2(C[C@H]1C(=O)NCc1cc(NC3=NCCS3)cs1)OCCO2)c1ccc(Oc2ccc(F)cc2)cc1 [Compound 284, (S)-N-((4-((4,5-dihydrothiazol-2-yl)amino)thiophen-2-yl)methyl)-7-((4-(4-fluorophenoxy)benzoyl)glycyl)-1,4-dioxa-7-azaspiro[4.4]nonane-8-carboxamide]
< 100 nM | C[C@@H](NC(=O)[C@@H]1C[C@H](c2ccccn2)CN1C(=O)CNC(=O)c1ccc2c(c1)-c1ccccc1C2(F)F)c1cc(C(=N)N)cs1 [Compound 358, (2S,4S)—N—((R)-1-(4-carbamimidoylthiophen-2-yl)ethyl)-1-((9,9-difluoro-9H-fluorene-3-carbonyl)glycyl)-4-(pyridin-2-yl)pyrrolidine-2-carboxamide]
< 100 nM | COC[C@@]1(F)C[C@@H](C(=O)N[C@H](C)c2cc(C(=N)N)cs2)N(C(=O)CNC(=O)c2ccc3c(c2)C(C)c2ccccc2-3)C1 (stereo partly drawn) [Compound 363, (2S,4R)—N—((R)-1-(4-carbamimidoylthiophen-2-yl)ethyl)-4-fluoro-4-(methoxymethyl)-1-((9-methyl-9H-fluorene-2-carbonyl)glycyl)pyrrolidine-2-carboxamide]
< 100 nM | C[C@@H](NC(=O)[C@@H]1C[C@@H](S(C)(=O)=O)CN1C(=O)CNC(=O)c1ccc2c(c1)oc1ccccc12)c1cc(C(=N)N)cs1 [Compound 379, (2S,4R)—N—((R)-1-(4-carbamimidoylthiophen-2-yl)ethyl)-1-((dibenzo[b,d]furan-3-carbonyl)glycyl)-4-(methylsulfonyl)pyrrolidine-2-carboxamide]
< 100 nM | CCCCCCOC(=O)/N=C(/N)c1csc([C@@H](C)NC(=O)[C@@H]2C[C@](F)(CF)CN2C(=O)CNC(=O)c2ccc(Oc3ccc(F)cc3)cc2)c1 [Compound 234, hexyl ((E)-amino(5-((R)-1-((2S,4R)-4-fluoro-4-(fluoromethyl)-1-((4-(4-fluorophenoxy)benzoyl)glycyl)pyrrolidine-2-carboxamido)ethyl)thiophen-3-yl)methylene)carbamate]

same assay, conditions: Human complement C1s enzyme 1.16 nM, substrate Z-L-Lys-SBzl; assay of Example 3; read-out: IC50 (Stars)

IC50 | SMILES
< 100 nM | CC1c2ccccc2-c2cc(C(=O)NCC(=O)N3C[C@@](F)(CF)C[C@H]3C(=O)N[C@H](C)c3cc(C(=N)N)cs3)ccc21 (stereo partly drawn) [Compound 417, (2S,4R)—N—((R)-1-(4-carbamimidoylthiophen-2-yl)ethyl)-4-fluoro-4-(fluoromethyl)-1-((9-methyl-9H-fluorene-3-carbonyl)glycyl)pyrrolidine-2-carboxamide]
< 100 nM | CC1(C)c2ccccc2-c2cc(C(=O)NCC(=O)N3CC4(C[C@H]3C(=O)N[C@H](CO)c3cc(C(=N)N)cs3)OCCO4)ccc21 [Compound 399, (S)—N—((R)-1-(4-carbamimidoylthiophen-2-yl)-2-hydroxyethyl)-7-((9,9-dimethyl-9H-fluorene-3-carbonyl)glycyl)-1,4-dioxa-7-azaspiro[4.4]nonane-8-carboxamide]
< 100 nM | COC[C@@]1(F)C[C@@H](C(=O)N[C@H](CO)c2cc(C(=N)N)cs2)N(C(=O)CNC(=O)c2ccc3c(c2)-c2ccccc2C3(F)F)C1 [Compound 408, (2S,4R)—N—((R)-1-(4-carbamimidoylthiophen-2-yl)-2-hydroxyethyl)-1-((9,9-difluoro-9H-fluorene-3-carbonyl)glycyl)-4-fluoro-4-(methoxymethyl)pyrrolidine-2-carboxamide]
< 100 nM | CS(=O)(=O)[C@@H]1C[C@@H](C(=O)N[C@H](CO)c2cc(C(=N)N)cs2)N(C(=O)CNC(=O)c2ccc3c(c2)-c2ccccc2C3(F)F)C1 [Compound 400, (2S,4R)—N—((R)-1-(4-carbamimidoylthiophen-2-yl)-2-hydroxyethyl)-1-((9,9-difluoro-9H-fluorene-3-carbonyl)glycyl)-4-(methylsulfonyl)pyrrolidine-2-carboxamide]
< 100 nM | CC1c2ccccc2-c2cc(C(=O)NCC(=O)N3C[C@H](S(C)(=O)=O)C[C@H]3C(=O)N[C@H](C)c3cc(C(=N)N)cs3)ccc21 (stereo partly drawn) [Compound 419, (2S,4R)—N—((R)-1-(4-carbamimidoylthiophen-2-yl)ethyl)-1-((9-methyl-9H-fluorene-3-carbonyl)glycyl)-4-(methylsulfonyl)pyrrolidine-2-carboxamide]
